{"source": "patent US20240401031A1", "about": "“Platform Using iPSC-Derived Cardiomyocytes Carrying Gene Variants as Models of Cardiac Disease and Drug-Response” (SRI INTERNATIONAL, priority 2021, published 2024)", "origin": "cited, not measured here", "data": [{"conditions": "source CredibleMeds", "values": [{"molecule": "C[C@@H]1C[C@H]2[C@@H]3C[C@H](F)C4=CC(=O)C=C[C@]4(C)[C@@]3(F)[C@@H](O)C[C@]2(C)[C@@]1(O)C(=O)SCF", "note": "[Fluticasone]", "Risk (Torsade de Pointes)": "(SR)"}, {"molecule": "COc1ccccc1OCC(O)CN1CCN(CC(=O)Nc2c(C)cccc2C)CC1", "note": "(stereo not drawn) [Ranolazine]", "Risk (Torsade de Pointes)": "(CR)"}, {"molecule": "COC(=O)CC[C@@H]1N=C(c2ccccn2)c2cc(Br)ccc2-n2c(C)cnc21", "note": "[Remimazolam]", "Risk (Torsade de Pointes)": "(PR)"}, {"molecule": "O=C(c1ccc(F)c(F)c1Nc1ccc(I)cc1F)N1CC(O)([C@@H]2CCCCN2)C1", "note": "[Cobimetinib]", "Risk (Torsade de Pointes)": "(PR)"}, {"molecule": "[Cs]", "note": "[Cesium]", "Risk (Torsade de Pointes)": "(KR)"}, {"molecule": "CCC(C)n1ncn(-c2ccc(N3CCN(c4ccc(OCC5COC(Cn6cncn6)(c6ccc(Cl)cc6Cl)O5)cc4)CC3)cc2)c1=O", "note": "(stereo not drawn) [Itraconazole]", "Risk (Torsade de Pointes)": "(CR)"}, {"molecule": "NC(=O)C1(N2CCCCC2)CCN(CCCC(=O)c2ccc(F)cc2)CC1", "note": "[Pipamperone]", "Risk (Torsade de Pointes)": "(PR)"}, {"molecule": "C[C@@H](Oc1cc(-c2cnn(C3CCNCC3)c2)cnc1N)c1c(Cl)ccc(F)c1Cl", "note": "[Crizotinib]", "Risk (Torsade de Pointes)": "(PR)"}, {"molecule": "COc1cc2c(cc1OC)[C@H]1C[C@@H](OC(=O)[C@@H](N)C(C)C)[C@H](CC(C)C)CN1CC2", "note": "[Valbenazine]", "Risk (Torsade de Pointes)": "(PR)"}, {"molecule": "C=C[C@]1(C)C[C@@H](OC(=O)CS[C@@H]2CC[C@@H](N)C[C@H]2O)[C@]2(C)[C@H](C)CC[C@]3(CCC(=O)[C@H]32)[C@@H](C)[C@@H]1O", "note": "[Lefamulin]", "Risk (Torsade de Pointes)": "(PR)"}, {"molecule": "C[C@H](N)Cc1ccccc1", "note": "[Dextroamphetamine]", "Risk (Torsade de Pointes)": "(SR)"}, {"molecule": "CN[C@H]1CC[C@@H](c2ccc(Cl)c(Cl)c2)c2ccccc21", "note": "[Sertraline]", "Risk (Torsade de Pointes)": "(CR)"}, {"molecule": "CCN(CC)CCNC(=O)c1cc(Cl)c(N)cc1OC", "note": "[Metoclopramide]", "Risk (Torsade de Pointes)": "(CR)"}, {"molecule": "CN(C)CCCN1c2ccccc2CCc2ccccc21", "note": "[Imipramine]", "Risk (Torsade de Pointes)": "(PR)"}, {"molecule": "CCCCCOC(=O)Nc1nc(=O)n([C@@H]2O[C@H](C)[C@@H](O)[C@H]2O)cc1F", "note": "[Capecitabine]", "Risk (Torsade de Pointes)": "(PR)"}, {"molecule": "CC(N)Cc1ccccc1", "note": "(stereo not drawn) [Amphetamine]", "Risk (Torsade de Pointes)": "(SR)"}, {"molecule": "O=C1CCc2cc(OCCCCc3nnnn3C3CCCCC3)ccc2N1", "note": "[Cilostazol]", "Risk (Torsade de Pointes)": "(KR)"}, {"molecule": "CCCCCCCC(=O)N[C@H](CN1CCCC1)[C@H](O)c1ccc2c(c1)OCCO2", "note": "[Eliglustat]", "Risk (Torsade de Pointes)": "(PR)"}, {"molecule": "CCCS(=O)(=O)Nc1ccc(F)c(C(=O)c2c[nH]c3ncc(-c4ccc(Cl)cc4)cc23)c1F", "note": "[Vemurafenib]", "Risk (Torsade de Pointes)": "(PR)"}, {"molecule": "CC(CN1c2ccccc2Sc2ccccc21)N(C)C", "note": "(stereo not drawn) [Promethazine]", "Risk (Torsade de Pointes)": "(PR)"}, {"molecule": "COC(=O)N[C@@H](C)CNc1nccc(-c2cn(C(C)C)nc2-c2cc(Cl)cc(NS(C)(=O)=O)c2F)n1", "note": "[Encorafenib]", "Risk (Torsade de Pointes)": "(PR)"}, {"molecule": "CCc1cc2c(cc1CC)CC(NC[C@H](O)c1ccc(O)c3[nH]c(=O)ccc13)C2", "note": "[Indacaterol]", "Risk (Torsade de Pointes)": "(SR)"}, {"molecule": "CC(N)C(O)c1ccccc1", "note": "(stereo not drawn) [Phenylpropanolamine]", "Risk (Torsade de Pointes)": "(SR)"}, {"molecule": "CN(C)CCC[C@@]1(c2ccc(F)cc2)OCc2cc(C#N)ccc21", "note": "[Escitalopram]", "Risk (Torsade de Pointes)": "(KR)"}, {"molecule": "FCOC(C(F)(F)F)C(F)(F)F", "note": "[Sevoflurane]", "Risk (Torsade de Pointes)": "(KR)"}, {"molecule": "Cl.Cl.OCCN1CCN(CCC=C2c3ccccc3Sc3ccc(C(F)(F)F)cc32)CC1", "note": "(mixture of isomers) [Flupentixol]", "Risk (Torsade de Pointes)": "(PR)"}, {"molecule": "Cc1cccc(Nc2ccncc2S(=O)(=O)NC(=O)NC(C)C)c1", "note": "[Torsemide]", "Risk (Torsade de Pointes)": "(CR)"}, {"molecule": "CNCCC(Oc1ccc(C(F)(F)F)cc1)c1ccccc1", "note": "(stereo not drawn) [Fluoxetine]", "Risk (Torsade de Pointes)": "(CR)"}, {"molecule": "C=C/C=C/C[C@@H](C)[C@@H](O)[C@H]1C(=O)N[C@@H](CC)C(=O)N(C)CC(=O)N(C)[C@@H](CC(C)C)C(=O)N[C@@H](C(C)C)C(=O)N(C)[C@@H](CC(C)C)C(=O)N[C@@H](C)C(=O)N[C@H](C)C(=O)N(C)[C@@H](CC(C)C)C(=O)N(C)[C@@H](CC(C)C)C(=O)N(C)[C@@H](C(C)C)C(=O)N1C", "note": "[Voclosporin]", "Risk (Torsade de Pointes)": "(PR)"}, {"molecule": "CCn1cc(C(=O)O)c(=O)c2cc(F)c(N3CCNCC3)cc21", "note": "[Norfloxacin]", "Risk (Torsade de Pointes)": "(PR)"}, {"molecule": "O=C(CCCCCCC(=O)Nc1ccccc1)NO", "note": "[Vorinostat]", "Risk (Torsade de Pointes)": "(PR)"}, {"molecule": "Fc1ccc([C@@H]2CCNC[C@H]2COc2ccc3c(c2)OCO3)cc1", "note": "[Paroxetine]", "Risk (Torsade de Pointes)": "(CR)"}, {"molecule": "NC(=O)OCC(COC(N)=O)c1ccccc1", "note": "[Felbamate]", "Risk (Torsade de Pointes)": "(PR)"}, {"molecule": "O=c1[nH]c2ccccc2n1C1CCN(CCCC(c2ccc(F)cc2)c2ccc(F)cc2)CC1", "note": "[Pimozide]", "Risk (Torsade de Pointes)": "(KR)"}, {"molecule": "CCc1ccc(C(=O)C(C)CN2CCCCC2)cc1", "note": "(stereo not drawn) [Eperisone]", "Risk (Torsade de Pointes)": "(CR)"}, {"molecule": "OCc1cc(C(O)CNCCCCCCOCCCCc2ccccc2)ccc1O", "note": "(stereo not drawn) [Salmeterol]", "Risk (Torsade de Pointes)": "(SR)"}, {"molecule": "CC(CN(C)C)CN1c2ccccc2CCc2ccccc21", "note": "(stereo not drawn) [Trimipramine]", "Risk (Torsade de Pointes)": "(PR)"}, {"molecule": "CCCCc1oc2ccccc2c1C(=O)c1cc(I)c(OCCN(CC)CC)c(I)c1", "note": "[Amiodarone]", "Risk (Torsade de Pointes)": "(KR)"}, {"molecule": "CC[C@H]1OC(=O)[C@H](C)[C@@H](O[C@H]2C[C@@](C)(OC)[C@@H](O)[C@H](C)O2)[C@H](C)[C@@H](O[C@@H]2O[C@H](C)C[C@H](N(C)C)[C@H]2O)[C@](C)(O)C[C@@H](C)/C(=N\\OCOCCOC)[C@H](C)[C@@H](O)[C@]1(C)O", "note": "[Roxithromycin]", "Risk (Torsade de Pointes)": "(KR)"}, {"molecule": "CC(NCCc1ccc(O)cc1)C(O)c1ccc(O)cc1", "note": "(stereo not drawn) [Ritodrine]", "Risk (Torsade de Pointes)": "(SR)"}, {"molecule": "O=C1[O][Pt]2([NH][C@@H]3CCCC[C@H]3[NH]2)[O]C1=O", "note": "[Oxaliplatin]", "Risk (Torsade de Pointes)": "(KR)"}, {"molecule": "CC(=O)N1CCN(c2ccc(OCC3COC(Cn4ccnc4)(c4ccc(Cl)cc4Cl)O3)cc2)CC1", "note": "(stereo not drawn) [Ketoconazole]", "Risk (Torsade de Pointes)": "(CR)"}, {"molecule": "CNC(=O)c1cc(Oc2ccc(NC(=O)Nc3ccc(Cl)c(C(F)(F)F)c3)cc2)ccn1", "note": "[Sorafenib]", "Risk (Torsade de Pointes)": "(PR)"}, {"molecule": "NS(=O)(=O)c1cc2c(cc1Cl)NCNS2(=O)=O", "note": "[Hydrochlorothiazide]", "Risk (Torsade de Pointes)": "(CR)"}, {"molecule": "CCc1cc(/C(C)=N/OCc2ccc(C3CCCCC3)c(C(F)(F)F)c2)ccc1CN1CC(C(=O)O)C1", "note": "[Siponimod]", "Risk (Torsade de Pointes)": "(PR)"}, {"molecule": "COc1ccc(CN2C3CC2CN(c2ccc(-c4cc(OCC(C)(C)O)cn5ncc(C#N)c45)cn2)C3)cn1", "note": "[Selpercatinib]", "Risk (Torsade de Pointes)": "(PR)"}, {"molecule": "C[C@]12CC[C@H](O)CC1=CC[C@@H]1[C@@H]2CC[C@]2(C)C(c3cccnc3)=CC[C@@H]12", "note": "[Abiraterone]", "Risk (Torsade de Pointes)": "(CR)"}, {"molecule": "Cc1cc(/C=C/C#N)cc(C)c1Nc1ccnc(Nc2ccc(C#N)cc2)n1", "note": "[Rilpivirine]", "Risk (Torsade de Pointes)": "(PR)"}, {"molecule": "CN(C)CC/C=C1/c2ccccc2Sc2ccc(Cl)cc21", "note": "[Chlorprothixene]", "Risk (Torsade de Pointes)": "(KR)"}, {"molecule": "Cc1ccc(Nc2nccc(N(C)c3ccc4c(C)n(C)nc4c3)n2)cc1S(N)(=O)=O", "note": "[Pazopanib]", "Risk (Torsade de Pointes)": "(PR)"}, {"molecule": "CN1CCN2c3ccccc3Cc3ccccc3C2C1", "note": "(stereo not drawn) [Mianserin]", "Risk (Torsade de Pointes)": "(PR)"}, {"molecule": "NS(=O)(=O)c1cc2c(cc1C(F)(F)F)NC(Cc1ccccc1)NS2(=O)=O", "note": "(stereo not drawn) [Bendroflumethiazide]", "Risk (Torsade de Pointes)": "(CR)"}, {"molecule": "CC[C@H]1CN2CC[C@H]1C[C@@H]2[C@@H](O)c1ccnc2ccc(OC)cc12", "note": "[Hydroquinidine]", "Risk (Torsade de Pointes)": "(KR)"}, {"molecule": "C=CC[C@@H]1/C=C(\\C)C[C@H](C)C[C@H](OC)[C@H]2O[C@@](O)(C(=O)C(=O)N3CCCC[C@H]3C(=O)O[C@H](/C(C)=C/[C@@H]3CC[C@@H](O)[C@H](OC)C3)[C@H](C)[C@@H](O)CC1=O)[C@H](C)C[C@@H]2OC", "note": "[Tacrolimus]", "Risk (Torsade de Pointes)": "(PR)"}, {"molecule": "C[C@]1(COc2ccc(N3CCC(Oc4ccc(OC(F)(F)F)cc4)CC3)cc2)Cn2cc([N+](=O)[O-])nc2O1", "note": "[Delamanid]", "Risk (Torsade de Pointes)": "(PR)"}, {"molecule": "OCCOCCN1CCN(C(c2ccccc2)c2ccc(Cl)cc2)CC1", "note": "(stereo not drawn) [Hydroxyzine]", "Risk (Torsade de Pointes)": "(CR)"}, {"molecule": "CNCCC=C1c2ccccc2CCc2ccccc21", "note": "[Nortriptyline]", "Risk (Torsade de Pointes)": "(PR)"}, {"molecule": "Cc1cccc(C)c1NC(=O)CC12CCCN1CCC2", "note": "[Pilsicainide]", "Risk (Torsade de Pointes)": "(PR)"}, {"molecule": "CS(=O)(=O)CCNCc1ccc(-c2ccc3ncnc(Nc4ccc(OCc5cccc(F)c5)c(Cl)c4)c3c2)o1", "note": "[Lapatinib]", "Risk (Torsade de Pointes)": "(PR)"}, {"molecule": "O=C1Cc2cc(CCN3CCN(c4nsc5ccccc45)CC3)c(Cl)cc2N1", "note": "[Ziprasidone]", "Risk (Torsade de Pointes)": "(CR)"}, {"molecule": "O=C1c2cccc3c2[C@H](CCC3)CN1[C@@H]1CN2CCC1CC2", "note": "[Palonosetron]", "Risk (Torsade de Pointes)": "(PR)"}, {"molecule": "[As]", "note": "[Arsenic]", "Risk (Torsade de Pointes)": "(KR)"}, {"molecule": "O=C(c1ccc(F)cc1)C1CCN(CCn2c(=O)[nH]c3ccccc3c2=O)CC1", "note": "[Ketanserin]", "Risk (Torsade de Pointes)": "(PR)"}, {"molecule": "FC(F)(F)C(F)(F)C(F)(F)F", "note": "[Perflutren]", "Risk (Torsade de Pointes)": "(PR)"}, {"molecule": "CC(C)/N=c1\\cc2n(-c3ccc(Cl)cc3)c3ccccc3nc-2cc1Nc1ccc(Cl)cc1", "note": "[Clofazimine]", "Risk (Torsade de Pointes)": "(PR)"}, {"molecule": "CCN(CCO)CCCC(C)Nc1ccnc2cc(Cl)ccc12", "note": "(stereo not drawn) [Hydroxychloroquine]", "Risk (Torsade de Pointes)": "(KR)"}, {"molecule": "CN(C)CCCC1(c2ccc(F)cc2)OCc2cc(C#N)ccc21", "note": "(stereo not drawn) [Citalopram]", "Risk (Torsade de Pointes)": "(KR)"}, {"molecule": "COc1ccnc(C[S+]([O-])c2nc3ccc(OC(F)F)cc3[nH]2)c1OC", "note": "(stereo not drawn) [Pantoprazole]", "Risk (Torsade de Pointes)": "(CR)"}, {"molecule": "COc1cc(NC(C)CCCN)c2ncccc2c1", "note": "(stereo not drawn) [Primaquine]", "Risk (Torsade de Pointes)": "(PR)"}]}]}
